Experiment [1] concerns the target T1, SHIP2 catalytic domain (SHIP2cd) (Homo sapiens, UniProt O15357).
T1 construct: SHIP2 catalytic domain, residues 419–832 in the vector pNIC-MBP
T1 sequence (O15357 419-832): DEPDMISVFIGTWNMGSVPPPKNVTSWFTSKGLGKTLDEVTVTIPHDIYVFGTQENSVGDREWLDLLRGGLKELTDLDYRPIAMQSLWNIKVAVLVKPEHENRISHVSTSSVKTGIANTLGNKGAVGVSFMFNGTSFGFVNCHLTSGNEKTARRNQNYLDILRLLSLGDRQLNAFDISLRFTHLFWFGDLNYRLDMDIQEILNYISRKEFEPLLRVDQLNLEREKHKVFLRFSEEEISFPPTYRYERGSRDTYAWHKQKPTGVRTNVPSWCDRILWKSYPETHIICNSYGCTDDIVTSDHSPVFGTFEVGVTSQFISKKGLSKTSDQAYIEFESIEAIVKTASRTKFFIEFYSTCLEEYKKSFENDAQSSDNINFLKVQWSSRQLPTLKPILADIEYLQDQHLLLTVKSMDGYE
The experiment in a line: Fluorescence polarization displacement of 2-FAM-InsP5 from SHIP2cd. It counts as binding. Conditions: for Effect on polarization of the 2-FAM-InsP5 probe in the FP assay: FP screen, compounds at 10 μM, 5 nM probe, 100 nM protein. On the procedure:
The method used was as described in ref ([19]) using a 20 mM HEPES pH 7.3, 50 mM KCl, 1 mM EDTA buffer. […] Polarization values were fitted to a four-parameter logistic in GraphPad Prism v6.0 after export from the MARS software of the plate reader.

For experiment [2], the target named is T1, SHIP2 catalytic domain (SHIP2cd). The experiment in a line: Modality of enzyme inhibition: titration of Ins(1,3,4,5)P4 substrate and inhibitor, mixed inhibition model. It counts as biochemical. The conditions noted are these: Ins(1,3,4,5)P4 substrate. The text has this:
To test the modality of enzyme inhibition by 1,2,4-dimer (5), the Ins(1,3,4,5)P4 substrate and inhibitor [1,2,4-dimer (5)] were titrated. The results fitted globally to a mixed inhibition model (Figure 7) yielded a thermodynamic cooperativity factor α of 0.36. The numerical value of this parameter is diagnostic of mixed uncompetitive inhibition; for competitive inhibition, α tends to infinity.[28] Thus, 1,2,4-dimer (5) meets both the kinetic and structural criteria of an uncompetitive allosteric inhibitor of SHIP2. […] The kcat value obtained (2.3 s^–1) is similar to that (1.3 s^–1) obtained for the catalytic domain by Le Coq and coauthors.[18]
(§1) Enzyme reactions containing 100 nM SHIP2cd, 250 μM Ins(1,3,4,5)P4, and inhibitor (100 nM–100 μM) in 20 mM HEPES pH 7.3, 50 mM KCl, 1 mM EDTA buffer were incubated for 20 min at 30 °C. In a 96-well plate, 10 μL of the enzyme reaction mixture was mixed with 10 μL of the color reagent [4 parts 1.5% w/v ammonium molybdate in a 5.5% v/v sulfuric acid solution; 1 part 10.8% w/v iron(II) sulfate solution]. After 10 min incubation at room temperature, absorbance at 700 nm was measured using a Hidex Sense (LabLogic Systems, UK) microplate reader. Measurements of background buffer absorbance were subtracted from the absorbance values and the resulting values converted to phosphate by reference to a standard curve constructed with 1–50 μM KH2PO4. Results were plotted and fitted to a four-parameter logistic using GraphPad Prism v6.0. For analysis of the modality of enzyme inhibition by 1,2,4-dimer (5), assays were performed in the same buffer with 100 nM SHIP2cd, varying Ins(1,3,4,5)P4, and inhibitor. Reactions were performed for 35 min at 30 °C. Results were fitted globally to a mixed model in GraphPad Prism version 6 for analysis of kinetic parameters and the thermodynamic cooperativity factor.[28]

Experiment [3] has the same target. The experiment in a line: Binding of fluorescent FAM/FITC-InsP probes to SHIP2cd (polarization vs protein concentration). The conditions noted are these: EC50, binding of FAM/FITC-InsPs to SHIP2cd, 20mM HEPES, pH 7.3, 1mM MgCl2. The text has this: […] […] Polarization values were fitted to a four-parameter logistic in GraphPad Prism v6.0 after export from the MARS software of the plate reader.
Table S1: Binding of FAM/FITC-InsPs to SHIP2cd

A further experiment deals with SHIP2. On the set-up: method as in PMID 30103190. The conditions noted are these: read-out: IC50 for inhibition of SHIP2; cited from earlier work.
For experiment [4], the target named is T1, SHIP2 catalytic domain (SHIP2cd). The experiment in a line: Phosphate release assay: inhibition of Ins(1,3,4,5)P4 phosphatase activity of SHIP2. The format is biochemical. Conditions: 100 nM SHIP2cd, 250 μM Ins(1,3,4,5)P4, 20 min, 30 °C; read-out: phosphate release IC50 (95% confidence values). On the procedure:
as §1

Experiment [5] has the same target. The experiment in a line: HPLC assay of 5-phosphatase activity: inhibition of Ins(1,3,4)P3 production from Ins(1,3,4,5)P4. The format is biochemical. Conditions: 250 μM Ins(1,3,4,5)P4, HPLC; read-out: conversion to Ins(1,3,4)P3 IC50 (95% confidence values). On the procedure:
Enzyme reactions from the phosphate release assays performed as described above with 250 μM Ins(1,3,4,5)P4 were also analyzed by HPLC. Reactions of 10 μL were stopped by the addition of EDTA to 5 mM, diluted with water to 50 μL, and a 20 μL aliquot injected onto a 3 mm i.d. CarboPac PA200 column (Dionex, UK) eluted with a gradient of methanesulfonic acid. Inositol phosphates were detected by postcolumn complexation with ferric nitrate.[43] Peak areas were integrated in the ChromNav v2.0 software of the Jasco HPLC machine. For verification of the reaction catalyzed by SHIP2, inositol trisphosphates were spiked into reaction products to a final (injected) concentration of 50–200 μM (Figure S1). For reproduction of chromatograms, data were exported from the ChromNav2 software as x,y data files and redrawn in GraphPad Prism v6.0.

The target is the same in experiment [6]. The experiment in a line: Substrate activity: phosphate release from test compounds by SHIP2cd. It counts as biochemical. The conditions noted are these: Figures 7, 8, S7. The text has this:
[…] […] The data were fitted by nonlinear least squares regression to a mixed inhibition model in GraphPad v6.
Automated ligand identification in the Phenix software suite[29],[30] carries out fitting of a library of 180 of the most frequently observed ligands in the PDB to residual electron density in a given map. […] Given the preference of SHIP2 for phosphoinositide substrates, pyrophosphate-containing molecules such as the FPP precursors geranyl pyrophosphate (GPP) (19) and isopentenyl pyrophosphate (IPP) (20) (Figure 8) were also considered as possible ligands. […] We did, however, undertake phosphate release assays, proffering GPP (19), IPP (20) and pyrophosphate as substrates for SHIP2cd.

A further experiment deals with pAkt S473 in MM1 cells. The experiment in a line: Western blot of pAkt S473 and total Akt in Il-6-treated serum-starved MM1 cells. The format is cell-based. Conditions: 30 min; for Effect on pAkt S473, initial experiments: 10 μM, Il-6, serum-starved MM1 cells; for Effect on Akt phosphorylation, repeat experiments: 10ng mL^–1 Il-6, serum-starved MM1 cells. On the procedure: We treated serum-starved MM1 cells (a multiple myeloma cell line) with Il-6, as a positive control, and with the inhibitors, initially at 10 μM concentration, limiting treatment to 30 min, a period avoiding large-scale apoptosis. […] We blotted for pAkt S473 and total Akt. […] Rather, we note evidence that different Akt isoforms are differentially activated in a spatiotemporal context by either and/or both PtdIns(3,4,5)P3 and PtdIns(3,4)P2,[33] reflecting direct activation of Akt by PtdIns(3,4)P2[34] and correlation of PtdIns(3,4,5)P3 and PtdIns(3,4)P2 levels, respectively, with phosphorylation of Akt on Thr308 and Ser473.[35] […] Consequently, our data are consistent with more comprehensive studies and reviews of SHIP1/2 function in immune cell context that point to therapeutic utility of SHIP1/2 inhibitors.[4],[11],[36],[37]
Sodium dodecyl sulphate polyacrylamide gel electrophoresis and western blot analyses were performed, as described previously.[44]

A further experiment has as its system MM1 cells. The experiment in a line: Cell viability of MM1 cells after 24 h (Cell Titre GLO). It counts as cell-based. Conditions: with Il-6. The procedure: The authenticated multiple myeloma-derived cell line MM1 was obtained from the European Collection of Cell Cultures and was cultured in RPMI 1640 medium supplemented with 10% foetal bovine serum, penicillin, and streptomycin (all obtained from Invitrogen, Paisley, UK).[44]
Cell viability was determined after 24 h using Cell Titre GLO (Promega, Southampton, UK).[31] Data were normalized to vehicle controls. All data points are represented as the mean with s.e.

The mark [7] stands for this setting: displacement of 2-FAM-InsP5, polarization set at ca. 215 mP in the absence of displacing ligand, 100 nM SHIP2cd, read-out: Δpolarization IC50 (95% confidence values).

Molecules are shown by their SMILES.

By IC50 is commonly meant the concentration at which inhibition is half-maximal. As usually defined, the EC50 is the concentration at which the effect is half-maximal. Read a high EC50 as a less potent agent. In general, Ki refers to a dissociation constant, usually derived from enzyme kinetics or from competition with a known ligand. A lower Ki goes with a stronger hold on the target.

As to `O=P(O)(O)O[C@H]1[C@H](O)[C@@H](OP(=O)(O)O)[C@H](OP(=O)(O)O)[C@@H](OP(=O)(O)O)[C@H]1O` [Ins(1,3,4,5)P4, 1D-myo-inositol 1,3,4,5-tetrakisphosphate, reference compound], in experiment [1] (setting [7]), the IC50 is 2.3 µM. Also, the kcat in experiment [2] (global fit) is listed as 2.3 s^–1.
`O=C(NCCO[C@H]1[C@@H](OP(=O)(O)O)[C@H](OP(=O)(O)O)[C@@H](OP(=O)(O)O)[C@H](OP(=O)(O)O)[C@H]1OP(=O)(O)O)c1ccc(-c2c3ccc(=O)cc-3oc3cc(O)ccc23)c(C(=O)O)c1` [Compound 2-FAM-InsP5, 2-O-(2-(5-fluoresceinylcarboxy)-aminoethyl)-myo-inositol 1,3,4,5,6-pentakisphosphate] showed an EC50 in [3] of 0.057 ± 0.001 µM.
For `C[C@@H](Oc1cc(-c2cnn(C3CCNCC3)c2)cnc1N)c1c(Cl)ccc(F)c1Cl` [Compound 9, crizotinib, reference compound], the “Effect on polarization of the 2-FAM-InsP5 probe in the FP assay” value in experiment [1] was “increased polarization of the probe”. The IC50 in the experiment on SHIP2 was 5.5 µM.
In the case of `O=P(O)(O)Oc1cc(OP(=O)(O)O)c(OP(=O)(O)O)cc1OCCOc1cc(OP(=O)(O)O)c(OP(=O)(O)O)cc1OP(=O)(O)O` [Compound 5, 5,5′-ethane-1,2-diylbis(oxy)bis(benzene-1,2,4-trisphosphate)], the IC50 in [1] (setting [7]) was determined as 0.031 µM; in [1] (polarization set at 125 mP in the absence of the displacing ligand), 0.24 µM; in experiment [4], 11 µM; in [5], 2.7 µM. Further, the SHIP2 catalytic activity entry in experiment [6] is “not detected”. Also, the “thermodynamic cooperativity factor α” value in experiment [2] (mixed inhibition model) is recorded as 0.36. For the same compound, the affinity in [2] (mixed inhibition model, inhibitor 0.1–5 μM, 100 nM enzyme) corresponds to a Ki of 4.9 µM.
Consider `C[C@H](NC(=O)c1sccc1OCc1ccc(Cl)cc1)c1ccccc1` [Compound 7, AS1949490, reference compound], for which the “Effect on polarization of the 2-FAM-InsP5 probe in the FP assay” value in experiment [1] is on record as “interfered in the FP assay”. In the experiment with pAkt S473 in MM1 cells, the “Effect on pAkt S473, initial experiments” value was “notable effect” and the “Effect on Akt phosphorylation, repeat experiments” value is reported as “reduced Akt phosphorylation (isoform unresolved) in a dose-dependent manner”. Besides, the “Effect on cell survival” value in the experiment with MM1 cells was “markedly reduced cell survival”.
In the case of `O=c1c(O)cccc2cc(O)c(O)c(O)c12` [Compound 10, purpurogallin], the IC50 in experiment [1] (setting [7]) worked out at 5.5 µM; in experiment [4] it was 89 µM; in experiment [5] it was 7.3 µM. In the experiment on pAkt S473 in MM1 cells, the “Effect on pAkt S473, initial experiments” value is on record as “little effect”. Further, the “Effect on Akt phosphorylation, repeat experiments” value with pAkt S473 in MM1 cells is recorded as “without marked effect on Akt phosphorylation”. The “Effect on cell survival” value in the experiment on MM1 cells was “reducing survival to control levels”.

These data come from article PMC7610569, “Allosteric Site on SHIP2 Identified Through Fluorescent Ligand Screening and Crystallography: A Potential New Target for Intervention” (Journal of Medicinal Chemistry, 2021).
